Reference: patent publication US9738637B2, “Histone demethylase inhibitors” (Quanticel Pharmaceuticals, Inc., priority 2013, dated 2017)
pIC50: −log10 of the molar value.

What was measured:
Jarid1A = Jarid1A (Homo sapiens (Human), UniProt P29375); test: Jarid1A in vitro enzyme inhibition assay (TR-FRET); format: biochemical; details: H3K4me3-biotin peptide
Method: (§1) This assay determines the ability of a test compound to inhibit Jarid1A, Jarid1B, JMJD2C, and JMJD2A demethylase activity.
The enzymatic assay of Jarid1A activity is based upon Time Resolved-Fluorescence Resonance Energy Transfer (TR-FRET) detection.
The assay reaction was initiated by the following: 2 μl of the mixture of 900 nM H3K4me3-biotin labeled peptide and 6 μM alpha-ketoglutaric acid with 2 μl of 11-point serial diluted inhibitor in 3% DMSO was added to each well of plate, followed by the addition of 2 μl of 3 nM Jarid1A to initiate the reaction. The reaction mixture was incubated at room temperature for 30 minutes, and terminated by the addition of 6 μl of 5 mM EDTA in LANCE detection buffer containing 50 nM Phycolink Streptavidin-allophycocyanin and 2 nM Europium-anti-H3K4me1-2 antibody.
(§2) The ability of the compounds disclosed herein to inhibit demethylase activity was quantified and the respective IC50 value was determined.

JMJD2C = JMJD2C (Homo sapiens (Human), UniProt Q9H3R0); test: JMJD2C in vitro enzyme inhibition assay (TR-FRET); format: biochemical; details: TR-FRET, H3K9me3-biotin peptide; read-out: IC50 JNJD2C
Method: as §1
(§3) Reaction product was determined quantitatively by TR-FRET after the addition of detection reagent Phycolink Streptavidin-allophycocyanin (Prozyme) and Europium-anti-di-methylated histone H3 lysine 9 (H3K9me2) antibody (PerkinElmer) in the presence of 5 mM EDTA in LANCE detection buffer (PerkinElmer) at a final concentration of 50 nM and 1 nM, respectively.
(§4) The assay reaction was initiated by the following: 2 μl of the mixture of 900 nM H3K9me3-biotin labeled peptide and 6 μM alpha-ketoglutaric acid with 2 μl of 11-point serial diluted inhibitor in 3% DMSO were added to each well of the plate, followed by the addition of 2 μl of 0.9 nM JMJD2C to initiate the reaction. The reaction mixture was incubated at room temperature for 30 minutes, and terminated by the addition of 6 μl of 5 mM EDTA in LANCE detection buffer containing 100 nM Phycolink Streptavidin-allophycocyanin and 2 nM Europium-anti-H3K9me2 antibody.
as §2

Jarid1B = Jarid1B (Homo sapiens (Human), UniProt Q9UGL1); test: Jarid1B in vitro enzyme inhibition assay (TR-FRET); format: biochemical; details: TR-FRET, H3K4me3-biotin peptide; read-out: IC50 Jarid1B
Method: as §1
The reaction mixture was incubated at room temperature for 30 minutes, and terminated by the addition of 6 μl of 5 mM EDTA in LANCE detection buffer containing 50 nM Phycolink Streptavidin-allophycocyanin and 2 nM Europium-anti-H3K4me1-2 antibody.
as §2

JMJD2A = JMJD2A (Homo sapiens (Human), UniProt O75164); test: JMJD2A in vitro enzyme inhibition assay (TR-FRET); format: biochemical; details: H3K9me3-biotin peptide
Method: as §1, §3
as §4, with “well of plate, followed” for “well of the plate, followed”, “μl of 6 nM JMJD2A” for “μl of 0.9 nM JMJD2C”, “6 nM JMJD2A to initiate” for “0.9 nM JMJD2C to initiate”
as §2

KDM5A and KDM5B = test: In vitro cell-based assay, ZR-75-1 cell line: tri-methyl H3K4 immuno-blotting (cellular inhibition of KDM5A/B); details: ZR-75-1 breast cancer cells, 72 hours, read-out: IC50 ZR-75-1 cell-MOA
Source text: This quantitative immuno-blotting assay measures the amount tri-methylated histone H3 at amino acid Lysine number 4, a specific substrate […] of the direct enzymatic activity of the histone demethylases KDM5A and KDM5B from extracts of the ZR-75-1 breast cancer cell line.
This assay is a fluorometric immunoassay for the quantification of tri-methyl H3K4 extracted from cells treated with test compound and is used as a measure of the cellular inhibition of KDM5A/B.
Cells were left in the presence of test compound for 72 hours. Extracts were prepared containing all of the cellular histone material using detergent based lysis and sonication methods. These lysates were subsequently normalized for total protein content using a colorimetric bicinchonic acid assay (MicroBCA Pierce/Thermo Scientific). Normalized cell extracts were then subjected to typical immuno-blotting procedures using NuPage reagents (Life Technologies). Electrophoretically separated histones were then transferred and immobilized using polyvinylidene difluoride membrane (Immobilon-FL Millipore). The amount of tri-methylated lysine 4 of histone H3 was detected using an antibody specific to the tri-methylated state (Cell Signaling Technologies) and quantified on an infrared imager using a densitometry software package (Odyssey CLx, Image Studio, Li-Cor). This background subtracted densitometry value was reported as a ration of the GAPDH amount for that sample and then calculated as a percent of the DMSO treated sample. The software package XL-fit (IDBS) was then used to calculate a relative IC50 value for the dilution series of a given test compound according to the equation: fit=(D+((Vmax*(x^n))/((x^n)+(Km^n)))).

Sequence of JMJD2C (Q9H3R0 2-372): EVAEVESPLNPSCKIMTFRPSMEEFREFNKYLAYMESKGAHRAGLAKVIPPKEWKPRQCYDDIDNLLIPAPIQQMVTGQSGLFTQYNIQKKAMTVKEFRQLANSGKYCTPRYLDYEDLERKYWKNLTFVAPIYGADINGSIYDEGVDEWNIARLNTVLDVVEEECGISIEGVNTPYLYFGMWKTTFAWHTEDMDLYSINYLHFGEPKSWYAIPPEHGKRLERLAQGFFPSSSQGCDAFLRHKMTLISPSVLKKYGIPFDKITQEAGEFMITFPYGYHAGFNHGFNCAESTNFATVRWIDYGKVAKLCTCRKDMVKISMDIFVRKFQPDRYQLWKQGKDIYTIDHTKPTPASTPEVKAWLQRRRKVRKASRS
Sequence of JMJD2A (O75164 1-350): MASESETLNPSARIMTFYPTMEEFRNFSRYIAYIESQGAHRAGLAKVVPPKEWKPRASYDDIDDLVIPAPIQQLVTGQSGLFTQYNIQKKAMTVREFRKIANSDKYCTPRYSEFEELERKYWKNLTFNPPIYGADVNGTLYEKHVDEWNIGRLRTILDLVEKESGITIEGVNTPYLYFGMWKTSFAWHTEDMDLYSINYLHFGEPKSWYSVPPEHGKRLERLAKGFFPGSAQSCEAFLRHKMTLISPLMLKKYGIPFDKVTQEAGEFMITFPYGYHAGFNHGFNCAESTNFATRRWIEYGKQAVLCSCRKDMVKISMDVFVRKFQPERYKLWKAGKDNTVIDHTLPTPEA
Sequence of Jarid1B (Q9UGL1 2-751): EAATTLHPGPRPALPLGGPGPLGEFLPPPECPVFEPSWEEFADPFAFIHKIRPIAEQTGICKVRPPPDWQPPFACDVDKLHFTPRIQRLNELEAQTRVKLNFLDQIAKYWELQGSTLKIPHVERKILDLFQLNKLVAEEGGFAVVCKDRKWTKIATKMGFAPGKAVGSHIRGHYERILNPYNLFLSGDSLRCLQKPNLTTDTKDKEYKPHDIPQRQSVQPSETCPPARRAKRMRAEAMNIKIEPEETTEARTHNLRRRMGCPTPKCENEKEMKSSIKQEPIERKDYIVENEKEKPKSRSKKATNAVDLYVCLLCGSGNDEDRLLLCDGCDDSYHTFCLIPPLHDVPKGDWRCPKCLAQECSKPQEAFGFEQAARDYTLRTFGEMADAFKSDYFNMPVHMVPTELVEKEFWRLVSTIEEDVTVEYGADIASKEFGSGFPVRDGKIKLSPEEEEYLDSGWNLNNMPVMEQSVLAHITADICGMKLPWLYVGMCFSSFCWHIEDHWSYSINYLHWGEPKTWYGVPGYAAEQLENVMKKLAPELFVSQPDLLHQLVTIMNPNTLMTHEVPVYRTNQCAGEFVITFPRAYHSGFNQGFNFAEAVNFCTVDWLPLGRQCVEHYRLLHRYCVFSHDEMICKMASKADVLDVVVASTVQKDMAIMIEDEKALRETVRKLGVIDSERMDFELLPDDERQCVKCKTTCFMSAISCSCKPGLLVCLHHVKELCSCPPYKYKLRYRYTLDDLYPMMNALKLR
Sequence of Jarid1A (P29375 1-1090): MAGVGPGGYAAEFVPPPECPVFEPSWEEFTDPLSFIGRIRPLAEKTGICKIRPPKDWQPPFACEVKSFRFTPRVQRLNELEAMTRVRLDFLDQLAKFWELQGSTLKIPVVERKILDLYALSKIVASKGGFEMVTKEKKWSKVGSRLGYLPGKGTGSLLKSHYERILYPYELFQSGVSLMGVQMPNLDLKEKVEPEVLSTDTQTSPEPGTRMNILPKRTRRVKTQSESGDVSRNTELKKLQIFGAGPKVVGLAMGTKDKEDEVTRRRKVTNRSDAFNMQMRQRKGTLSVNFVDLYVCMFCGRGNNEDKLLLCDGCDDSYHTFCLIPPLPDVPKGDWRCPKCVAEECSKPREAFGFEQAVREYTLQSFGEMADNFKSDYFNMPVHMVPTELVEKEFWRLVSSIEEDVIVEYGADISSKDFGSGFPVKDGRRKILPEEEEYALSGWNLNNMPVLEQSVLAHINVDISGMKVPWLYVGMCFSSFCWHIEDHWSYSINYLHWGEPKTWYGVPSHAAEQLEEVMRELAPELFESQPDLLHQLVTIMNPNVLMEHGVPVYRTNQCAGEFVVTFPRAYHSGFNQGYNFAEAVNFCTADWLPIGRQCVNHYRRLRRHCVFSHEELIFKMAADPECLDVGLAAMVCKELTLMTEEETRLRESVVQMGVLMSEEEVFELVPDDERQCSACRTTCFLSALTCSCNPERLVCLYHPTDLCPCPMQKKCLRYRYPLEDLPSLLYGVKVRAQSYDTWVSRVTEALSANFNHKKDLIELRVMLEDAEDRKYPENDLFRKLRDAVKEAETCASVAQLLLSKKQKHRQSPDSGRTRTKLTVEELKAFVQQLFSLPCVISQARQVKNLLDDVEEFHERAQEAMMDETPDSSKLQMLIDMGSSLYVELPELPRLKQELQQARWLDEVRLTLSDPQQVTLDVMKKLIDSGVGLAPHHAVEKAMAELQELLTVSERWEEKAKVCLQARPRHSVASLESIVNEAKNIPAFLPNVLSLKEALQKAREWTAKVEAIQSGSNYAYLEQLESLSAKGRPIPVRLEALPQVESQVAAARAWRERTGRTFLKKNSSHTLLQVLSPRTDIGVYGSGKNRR

Structure (SMILES) | pIC50 (Jarid1A) | pIC50 (JMJD2C) | pIC50 (Jarid1B) | pIC50 (JMJD2A) | pIC50 (KDM5A and KDM5B)
O=C(O)c1ccnc2cc(-c3ccccc3)[nH]c12 [Example 2, 2-phenyl-1H-pyrrolo[3,2-b]pyridine-7-carboxylic acid] | 6.00 to 7.00 | 6.00 to 7.00 | 6.00 to 7.00 | 6.00 to 7.00 | 
O=C(O)c1ccnc2cc(COc3ccc(F)cc3)[nH]c12 [Example 60, 2-[(4-fluorophenoxy)methyl]-1H-pyrrolo[3,2-b]pyridine-7-carboxylic acid] | > 7.00 | 6.00 to 7.00 | > 7.00 |  | 5.00 to 6.00
COC(=O)c1ccnc2cc(C(C)(O)c3ccccc3)[nH]c12 (racemic) [Example 45, (±)-methyl 2-(1-hydroxy-1-phenylethyl)-1H-pyrrolo[3,2-b]pyridine-7-carboxylate] |  |  |  |  | < 5.00
Cn1nccc1C(O)c1cc2nccc(C(=O)O)c2[nH]1 (racemic) [Example 48, (±)-2-[hydroxy-(2-methylpyrazol-3-yl)methyl]-1H-pyrrolo[3,2-b]pyridine-7-carboxylic acid] | > 7.00 | > 7.00 | > 7.00 |  | < 5.00
O=C(O)c1ccnc2cc(C(O)c3ccccc3Cl)[nH]c12 (racemic) [Example 72, (±)-2-[(2-chlorophenyl)-hydroxymethyl]-1H-pyrrolo[3,2-b]pyridine-7-carboxylic acid] | > 7.00 | 6.00 to 7.00 | > 7.00 |  | < 5.00
Cc1ccccc1OCc1cc2nccc(C(=O)O)c2[nH]1 [Example 66, 2-[(2-methylphenoxy)methyl]-1H-pyrrolo[3,2-b]pyridine-7-carboxylic acid] | > 7.00 | 6.00 to 7.00 | > 7.00 |  | < 5.00
Cc1ccccc1-c1cc2nccc(C(=O)O)c2[nH]1 [Example 3, 2-(2-methylphenyl)-1H-pyrrolo[3,2-b]pyridine-7-carboxylic acid] | 6.00 to 7.00 | 6.00 to 7.00 | 6.00 to 7.00 | > 7.00 | 
CC(O)(c1ccccc1)c1cc2nccc(C(=O)O)c2[nH]1 (racemic) [Example 46, (±)-2-(1-hydroxy-1-phenylethyl)-1H-pyrrolo[3,2-b]pyridine-7-carboxylic acid] | > 7.00 | 6.00 to 7.00 | 6.00 to 7.00 |  | < 5.00
O=C(O)c1ccnc2cc(COc3ccccc3)[nH]c12 [Example 39, 2-(phenoxymethyl)-1H-pyrrolo[3,2-b]pyridine-7-carboxylic acid] | > 7.00 | > 7.00 | > 7.00 | 6.00 to 7.00 | 
COC(=O)c1ccnc2cc(C(O)C3CCOCC3)[nH]c12 (racemic) [Example 42, (±)-methyl 2-[hydroxy(oxan-4-yl)methyl]-1H-pyrrolo[3,2-b]pyridine-7-carboxylate] |  |  |  |  | < 5.00
COC(=O)c1ccnc2cc(Cc3ccccc3)[nH]c12 [Example 6, methyl 2-benzyl-1H-pyrrolo[3,2-b]pyridine-7-carboxylate] | < 5.00 | < 5.00 | < 5.00 |  | < 5.00
O=C(O)c1ccnc2cc(COc3ccc(Cl)cc3)[nH]c12 [Example 64, 2-[(4-chlorophenoxy)methyl]-1H-pyrrolo[3,2-b]pyridine-7-carboxylic acid] | > 7.00 | > 7.00 | > 7.00 |  | 5.00 to 6.00
COC(=O)c1ccnc2cc(C(O)c3ccnn3C)[nH]c12 (racemic) [Example 47, (±)-methyl 2-[hydroxy-(2-methylpyrazol-3-yl)methyl]-1H-pyrrolo[3,2-b]pyridine-7-carboxylate] |  |  |  |  | < 5.00

Now from value to molecule:

pIC50 (Jarid1A) | pIC50 (JMJD2C) | pIC50 (Jarid1B) | pIC50 (JMJD2A) | pIC50 (KDM5A and KDM5B) | Structure (SMILES)
5.00 to 6.00 | > 7.00 | 5.00 to 6.00 | 6.00 to 7.00 |  | O=C(O)c1ccnc2cc(Cc3ccc(Cl)c(C(F)(F)F)c3)[nH]c12 [Example 136, 2-[4-chloro-3-(trifluoromethyl)benzyl]-1H-pyrrolo[3,2-b]pyridine-7-carboxylic acid]
> 7.00 | > 7.00 | > 7.00 |  | < 5.00 | O=C(O)c1ccnc2cc(Cc3ccc(F)cc3)[nH]c12 [Example 101, 2-[(4-fluorophenyl)methyl]pyrrolo[3,2-b]pyridine-7-carboxylic acid]
> 7.00 | > 7.00 | 6.00 to 7.00 |  | < 5.00 | Cc1cccc(Cc2cc3nccc(C(=O)O)c3[nH]2)c1 [Example 36, 2-[(3-methylphenyl)methyl]-1H-pyrrolo[3,2-b]pyridine-7-carboxylic acid]
6.00 to 7.00 | > 7.00 | > 7.00 | 5.00 to 6.00 |  | O=C(O)c1ccnc2cc(Cc3ccc(Cl)c(OCC4CC4)c3)[nH]c12 [Example 138, 2-[4-chloro-3-(cyclopropylmethoxy)benzyl]-1H-pyrrolo[3,2-b]pyridine-7-carboxylic acid]
> 7.00 | 6.00 to 7.00 | 6.00 to 7.00 |  | < 5.00 | COc1cccc(Cc2cc3nccc(C(=O)O)c3[nH]2)c1 [Example 34, 2-[(3-methoxyphenyl)methyl]-1H-pyrrolo[3,2-b]pyridine-7-carboxylic acid]
5.00 to 6.00 | 6.00 to 7.00 | 5.00 to 6.00 | 6.00 to 7.00 |  | O=C(O)c1ccnc2cc(Cc3cc(F)c(Cl)c(Cl)c3)[nH]c12 [Example 132, 2-(3,4-dichloro-5-fluorobenzyl)-1H-pyrrolo[3,2-b]pyridine-7-carboxylic acid]
6.00 to 7.00 | > 7.00 | > 7.00 | 6.00 to 7.00 |  | O=C(O)c1ccnc2cc(Cc3ccc(Cl)c(OC(F)(F)F)c3)[nH]c12 [Example 142, 2-[4-chloro-3-(trifluoromethoxy)benzyl]-1H-pyrrolo[3,2-b]pyridine-7-carboxylic acid]
> 7.00 | 6.00 to 7.00 | > 7.00 |  | < 5.00 | O=C(O)c1ccnc2cc(Cc3ccc(Cl)cc3)[nH]c12 [Example 44, 2-[(4-chlorophenyl)methyl]-1H-pyrrolo[3,2-b]pyridine-7-carboxylic acid]
> 7.00 | > 7.00 | > 7.00 |  | < 5.00 | Cc1cccc(OCc2cc3nccc(C(=O)O)c3[nH]2)c1 [Example 74, 2-[(3-methylphenoxy)methyl]-1H-pyrrolo[3,2-b]pyridine-7-carboxylic acid]
5.00 to 6.00 | > 7.00 | 5.00 to 6.00 | 6.00 to 7.00 |  | O=C(O)c1ccnc2cc(Cc3ccc(Cl)c(Cl)c3)[nH]c12 [Example 130, 2-(3,4-dichlorobenzyl)-1H-pyrrolo[3,2-b]pyridine-7-carboxylic acid]
5.00 to 6.00 | > 7.00 | 6.00 to 7.00 | 6.00 to 7.00 |  | Cc1cc(Cc2cc3nccc(C(=O)O)c3[nH]2)ccc1Cl [Example 134, 2-(4-chloro-3-methylbenzyl)-1H-pyrrolo[3,2-b]pyridine-7-carboxylic acid]
